Like-named read-outs stand apart in the source and are kept apart here.
System: mucous membrane (HET-CAM)
Experiment: Mucous membrane compatibility, in vitro HET-CAM test, reaction time method
Protocol: Mucous membrane compatibility was evaluated by the in vitro HET-CAM test using the reaction time method (conc. 5% in 2×-distilled water, pH=6).

[1] = conc. 5% in 2×-distilled water, pH=6

Substance | Evaluation | Irritation value Q | Evaluation [1] | Irritation value Q [1]
Sodium Laureth Sulfate [Texapon ASV] | Moderately | 1.0 | – | –
mono-C12-glycerol ether carboxylic acid [Example 1] | – | – | Slightly irritating | 0.76
mono-C12-glycerol ether+4EO ether carboxylic acid [Example 2] | – | 0.00 | – | –
